Source: article PMC11995724, “Antibiotic target discovery by integrated phenotypic and activity-based profiling of electrophilic fragments” (Cell chemical biology, 2025)
Counter-ions that a name gives are not always drawn.

Assay: in vitro
Settings: human, hek293t cells

SMILES	viability at 48 h, 25 µM [%]
Cc1cc(C(=O)CCl)c(C)n1-c1ccc(C(C)(C)C)cc1 [10-N20, 1-[1-(4-tert-butylphenyl)-2,5-dimethyl-1H-pyrrol-3-yl]-2-chloroethan-1-one]	0.606
CC1(C)C(=O)Nc2ccc(C(=O)CCl)cc21 [10-N21, 5-(2-chloroacetyl)-3,3-dimethyl-2,3-dihydro-1H-indol-2-one]	73.1
Cn1cc(C(=O)CCl)cc1C(=O)C(Cl)(Cl)Cl [10-N22, 2,2,2-trichloro-1-[4-(2-chloroacetyl)-1-methyl-1H-pyrrol-2-yl]ethan-1-one]	1.4
Cc1cc(C(=O)CCl)c(F)cc1F [10-O03, 2-chloro-1-(2,4-difluoro-5-methylphenyl)ethan-1-one]	2.01
CC(Cl)C(=O)c1ccc(Cl)cc1 (stereo not shown) [10-O04, 2-chloro-1-(4-chlorophenyl)propan-1-one]	106
CC(=O)NCCc1cc(C(=O)CCl)ccc1F [10-O05, N-{2-[5-(2-chloroacetyl)-2-fluorophenyl]ethyl}acetamide]	37.8
CCCC(=O)Nc1ccc(C(=O)C(C)Cl)cc1 (stereo not shown) [10-O06, N-[4-(2-chloropropanoyl)phenyl]butanamide]	85.1
O=C1C=CC(=O)N1c1cccc(O)c1 [10-O07, 1-(3-hydroxyphenyl)-2,5-dihydro-1H-pyrrole-2,5-dione]	68.4
N#CC(C(=O)CCl)=C1Nc2cc(Cl)ccc2S1 [10-O08, 4-chloro-2-(5-chloro-2,3-dihydro-1,3-benzothiazol-2-ylidene)-3-oxobutanenitrile]	101
O=C(CCl)c1ccoc1 [10-O09, 2-chloro-1-(furan-3-yl)ethan-1-one]	76.8
COc1ccccc1N1C(=O)C=CC1=O [10-O10, 1-(2-methoxyphenyl)-2,5-dihydro-1H-pyrrole-2,5-dione]	57.5
O=C(CCl)c1c[nH]c2ccc(F)cc12 [10-O11, 2-chloro-1-(5-fluoro-1H-indol-3-yl)ethan-1-one]	0.58
CC(=O)Nc1ccc(C(=O)CCl)cc1 [10-O12, N-[4-(2-chloroacetyl)phenyl]acetamide]	12.6
Cc1ccc(CC(=O)CCl)cc1 [10-O13, 1-chloro-3-(4-methylphenyl)propan-2-one]	67.6
Cc1ccc([N+](=O)[O-])cc1N1C(=O)C=CC1=O [10-O14, 1-(2-methyl-5-nitrophenyl)-2,5-dihydro-1H-pyrrole-2,5-dione]	67.2
O=C(CCl)Cc1c(F)cccc1F [10-O15, 1-chloro-3-(2,6-difluorophenyl)propan-2-one]	95.8
Cc1cc(C(=O)CCl)c(C)n1CC(N)=O [10-O16, 2-[3-(2-chloroacetyl)-2,5-dimethyl-1H-pyrrol-1-yl]acetamide]	108
O=C(CCl)Cc1ccc(F)c(F)c1 [10-O17, 1-chloro-3-(3,4-difluorophenyl)propan-2-one]	28
Cc1nc(CNC(=O)N2CCSSCC2)cs1 [10-O18, N-[(2-methyl-1,3-thiazol-4-yl)methyl]-1,2,5-dithiazepane-5-carboxamide]	112
O=C1C=CC(=O)N1C1CNC1 [10-O19, 1-(azetidin-3-yl)-2,5-dihydro-1H-pyrrole-2,5-dione hydrochloride]	83.3
O=C1CCc2cc(C(=O)CCl)c(F)cc2N1 [10-O20, 6-(2-chloroacetyl)-7-fluoro-1,2,3,4-tetrahydroquinolin-2-one]	11.9
c1ccc(CSSCc2ccccc2)cc1 [10-O21, [(benzyldisulfanyl)methyl]benzene]	100

SMILES	viability at 48 h, 25 µM [%]
O=C(Nc1nccs1)N1CCSSCC1 [10-O22, N-(1,3-thiazol-2-yl)-1,2,5-dithiazepane-5-carboxamide]	113
CC(=O)NCCc1ccc(C(=O)CCl)s1 [10-P03, N-{2-[5-(2-chloroacetyl)thiophen-2-yl]ethyl}acetamide]	64.9
O=C(CCl)c1c(-c2ccc(F)cc2)[nH]c2ccccc12 [10-P04, 2-chloro-1-[2-(4-fluorophenyl)-1H-indol-3-yl]ethan-1-one]	4.16
Cn1c(N)c(N2C(=O)C=CC2=O)c(=O)[nH]c1=O [10-P05, 6-amino-5-(2,5-dioxo-2,5-dihydro-1H-pyrrol-1-yl)-1-methyl-1,2,3,4-tetrahydropyrimidine-2,4-dione]	124
Nc1c(C(=O)CCl)c(=O)[nH]c(=O)n1C1CC1 [10-P06, 6-amino-5-(2-chloroacetyl)-1-cyclopropyl-1,2,3,4-tetrahydropyrimidine-2,4-dione]	111
O=C1C=CC(=O)N1c1cnccn1 [10-P07, 1-(pyrazin-2-yl)-2,5-dihydro-1H-pyrrole-2,5-dione]	103
CCn1nc(C)c(C(=O)CCl)n1 [10-P08, 2-chloro-1-(2-ethyl-5-methyl-2H-1,2,3-triazol-4-yl)ethan-1-one]	27.2
O=C(Nc1cccc(-c2nnco2)c1)N1CCSSCC1 [10-P09, N-[3-(1,3,4-oxadiazol-2-yl)phenyl]-1,2,5-dithiazepane-5-carboxamide]	116
CC(C)(C)C(=O)NCc1ccc(C(=O)CCl)s1 [10-P10, N-{[5-(2-chloroacetyl)thiophen-2-yl]methyl}-2,2-dimethylpropanamide]	12.3
O=C1C=CC(=O)N1c1ccc(OC(F)F)cc1 [10-P11, 1-[4-(difluoromethoxy)phenyl]-2,5-dihydro-1H-pyrrole-2,5-dione]	102
CC(Cl)C(=O)c1ccc2c(c1)NC(=O)CO2 (stereo not shown) [10-P12, 6-(2-chloropropanoyl)-3,4-dihydro-2H-1,4-benzoxazin-3-one]	105
COc1ccc([N+](=O)[O-])cc1N1C(=O)C=CC1=O [10-P13, 1-(2-methoxy-5-nitrophenyl)-2,5-dihydro-1H-pyrrole-2,5-dione]	102
N#CC(C(=O)CCl)=C1NC(=O)c2ccccc2N1 [10-P14, 4-chloro-3-oxo-2-(4-oxo-1,2,3,4-tetrahydroquinazolin-2-ylidene)butanenitrile]	110
O=C1C=CC(=O)N1c1cccc([N+](=O)[O-])c1 [10-P15, 1-(3-nitrophenyl)-2,5-dihydro-1H-pyrrole-2,5-dione]	92.8
Cc1cc(C(=O)CCl)c(C)n1Cc1ccccc1Cl [10-P16, 2-chloro-1-{1-[(2-chlorophenyl)methyl]-2,5-dimethyl-1H-pyrrol-3-yl}ethan-1-one]	0.942
Cc1cc(C(=O)CCl)c(C)n1C(C)c1ccccc1 (stereo not shown) [10-P17, 2-chloro-1-[2,5-dimethyl-1-(1-phenylethyl)-1H-pyrrol-3-yl]ethan-1-one]	113
CN1C(=C(C#N)C(=O)CCl)N(C)c2ccccc21 [10-P18, 4-chloro-2-(1,3-dimethyl-2,3-dihydro-1H-1,3-benzodiazol-2-ylidene)-3-oxobutanenitrile]	89.4
O=S(=O)(CC=C(Cl)Cl)N1CCSSCC1 [10-P19, 5-(3,3-dichloroprop-2-ene-1-sulfonyl)-1,2,5-dithiazepane]	127
CN(C)C1=NC(N)=NC(=C(C#N)C(=O)CCl)N1 [10-P20, 2-[4-amino-6-(dimethylamino)-1,2-dihydro-1,3,5-triazin-2-ylidene]-4-chloro-3-oxobutanenitrile]	104
COc1ccccc1CN1C(=O)C=CC1=O [10-P21, 1-[(2-methoxyphenyl)methyl]-2,5-dihydro-1H-pyrrole-2,5-dione]	105
CC(=O)c1c(C)[nH]c(C(=O)C(C)Cl)c1C (stereo not shown) [10-P22, 1-(4-acetyl-3,5-dimethyl-1H-pyrrol-2-yl)-2-chloropropan-1-one]	103
